Calls of active or inactive are those of the source. The calls are words filed in the database; no cut-off is given here.
Legend:
[1] = (§1) Activity at Insulin receptor in mouse 3T3-L1 cells assessed as glucose uptake; assay type: cell-based
3T3-L1 = test: as §1; assay type: cell-based

| Structure (SMILES) | EC50 [1] [µM] | Activity (3T3-L1) |
| --- | --- | --- |
| O=C(Nc1cc(C(=O)Nc2cccc3cc(S(=O)(=O)O)ccc23)cc(C(=O)Nc2cccc3cc(S(=O)(=O)O)ccc23)c1)c1ccc(Cl)cc1 | 72.8 |  |
| O=C(Nc1cccc2cc(S(=O)(=O)O)ccc12)c1cc(NC(=O)C2CCCCC2)cc(C(=O)Nc2cccc3cc(S(=O)(=O)O)ccc23)c1 |  | inactive |
| O=C(Nc1cccc2cc(S(=O)(=O)O)ccc12)c1cc(C(=O)Nc2cccc3cc(S(=O)(=O)O)ccc23)cc(C(=O)Nc2cccc3cc(S(=O)(=O)O)ccc23)c1 | 135 |  |
| O=C(Nc1cc(C(=O)Nc2cccc3cc(S(=O)(=O)O)ccc23)cc(C(=O)Nc2cccc3cc(S(=O)(=O)O)ccc23)c1)c1cccc(F)c1 | 19.4 |  |
| O=C(Nc1cccc2cc(S(=O)(=O)O)ccc12)c1cc(NC(=O)c2cccc3ccccc23)cc(C(=O)Nc2cccc3cc(S(=O)(=O)O)ccc23)c1 | 12.8 |  |
| O=C(Nc1cc(C(=O)Nc2cccc3cc(S(=O)(=O)O)ccc23)cc(C(=O)Nc2cccc3cc(S(=O)(=O)O)ccc23)c1)c1cccc([N+](=O)[O-])c1 | 44.5 |  |
| O=C(Nc1ccc2c(O)c(/N=N/c3ccc(/N=N/c4ccc(S(=O)(=O)O)cc4)cc3S(=O)(=O)O)c(S(=O)(=O)O)cc2c1)Nc1ccc2c(O)cc(S(=O)(=O)O)c(/N=N/c3ccc(/N=N/c4ccc(S(=O)(=O)O)cc4)cc3S(=O)(=O)O)c2c1 | 90 |  |
| O=C(Nc1cc(C(=O)Nc2cccc3cc(O)ccc23)cc(C(=O)Nc2cccc3cc(S(=O)(=O)O)ccc23)c1)c1cccc(Cl)c1 | 61.7 |  |
| O=C(Nc1cc(C(=O)Nc2cccc3cc(S(=O)(=O)O)ccc23)cc(C(=O)Nc2cccc3cc(S(=O)(=O)O)ccc23)c1)c1ccncc1 |  | inactive |
| O=C(Nc1cc(C(=O)Nc2cccc3cc(S(=O)(=O)O)ccc23)cc(C(=O)Nc2cccc3cc(S(=O)(=O)O)ccc23)c1)c1ccc([N+](=O)[O-])cc1 |  | inactive |
| O=C(Nc1cc(C(=O)Nc2cccc3cc(S(=O)(=O)O)ccc23)cc(C(=O)Nc2cccc3cc(S(=O)(=O)O)ccc23)c1)c1cccc(Cl)c1 | 5.7 |  |
| O=C(Nc1cc(C(=O)Nc2cccc3cc(S(=O)(=O)O)ccc23)cc(C(=O)Nc2cccc3cc(S(=O)(=O)O)ccc23)c1)c1cccnc1 |  | inactive |
| O=C(Nc1cccc2cc(S(=O)(=O)O)ccc12)c1cc(NC(=O)c2cnc3ccccc3n2)cc(C(=O)Nc2cccc3cc(S(=O)(=O)O)ccc23)c1 |  | inactive |
| O=C(Nc1cc(C(=O)Nc2cccc3ccccc23)cc(C(=O)Nc2cccc3cc(S(=O)(=O)O)ccc23)c1)c1cccc(Cl)c1 | 66.5 |  |
| O=C(Cc1cccc(Cl)c1)Nc1cc(C(=O)Nc2cccc3cc(S(=O)(=O)O)ccc23)cc(C(=O)Nc2cccc3cc(S(=O)(=O)O)ccc23)c1 |  | inactive |
| O=C(Nc1cc(C(=O)Nc2cccc3cc(S(=O)(=O)O)ccc23)cc(C(=O)Nc2cccc3cc(S(=O)(=O)O)ccc23)c1)c1ccc(F)cc1 | 78.5 |  |
| O=C(Nc1cccc2cc(S(=O)(=O)O)ccc12)c1cc(NC(=O)c2ccco2)cc(C(=O)Nc2cccc3cc(S(=O)(=O)O)ccc23)c1 |  | inactive |
| O=C(Nc1cc(C(=O)Nc2cccc3cc(S(=O)(=O)O)ccc23)cc(C(=O)Nc2cccc3cc(S(=O)(=O)O)ccc23)c1)c1ccc2ccccc2c1 | 3.7 |  |
| O=C(Nc1cccc2cc(S(=O)(=O)O)ccc12)c1cc(NS(=O)(=O)c2ccc(F)cc2)cc(C(=O)Nc2cccc3cc(S(=O)(=O)O)ccc23)c1 |  | inactive |
| O=C(Nc1cccc(Cl)c1)Nc1cc(C(=O)Nc2cccc3cc(S(=O)(=O)O)ccc23)cc(C(=O)Nc2cccc3cc(S(=O)(=O)O)ccc23)c1 |  | inactive |

Source: ChEMBL document CHEMBL1145595, “5-Substituted isophthalamides as insulin receptor sensitizers” (Bioorg Med Chem Lett, 2008)
